Assay in all cases: combination Emax (second highest fraction inhibited in the dose matrix, 72 h); higher = more inhibition; extreme values may be limits of the assay
The subject of experiment [1] is ATN-1 (T-Lymphoblastic Leukemia). The method, boiled down: (§1)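 Cell lines in DMEM/F12 or RPMI with 10% FBS were plated in 1536-well plates, held 24 hours at 37°C, 5% CO2, then given two-drug dose matrices for 72 hours (DMSO typically 0.2%). Viability was read by CellTiter-Glo 2.0 luminescence and scaled as inhibition from 0 (vehicle wells) to 1 (blank wells). Combination Emax is the second-highest inhibition in the matrix; Bliss excess is observed combination effect minus expected EA + EB − EA·EB, EA and EB being single-agent effects.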

Experiment [2] relates to BT-474 (Breast Carcinoma). The method, boiled down: as §1
Experiment [3] concerns C2BBe1 (Colorectal Carcinoma). The method, boiled down:
as §1

Another experiment concerns DK-MG (Glioblastoma). Put shortly:
as §1

The test system of experiment [4] is GRANTA-519 (B-Cell Non-Hodgkin's Lymphoma). Put shortly: as §1
Experiment [5] relates to HT-3 (Cervical Carcinoma). Put shortly: as §1
The subject of experiment [6] is IGROV-1 (Ovarian Carcinoma). The method, boiled down: as §1
Experiment [7] deals with JJN-3 (Plasma Cell Myeloma). The method, boiled down: as §1
In experiment [8] the test system is JURL-MK1 (Chronic Myelogenous Leukemia). Put shortly:
as §1

Experiment [9] relates to NCI-H1048 (Small Cell Lung Carcinoma). Put shortly:
as §1

Experiment [10] concerns NCI-H1944 (Lung Adenocarcinoma). The method, boiled down:
as §1

Experiment [11] relates to NCI-H1975 (Lung Adenocarcinoma). The method, boiled down: as §1
Experiment [12] has as its system NCI-H2023 (Non-Small Cell Lung Carcinoma). The method, boiled down:
as §1

Experiment [13] has as its system NCI-H2170 (Squamous Cell Lung Carcinoma). The method, boiled down: as §1
Experiment [14] relates to OCI-M1 (Acute Myeloid Leukemia). The method, boiled down:
as §1

The test system of experiment [15] is SBC-5 (Small Cell Lung Carcinoma). Put shortly: as §1
Experiment [16] has as its system SCC90 (Head and Neck Carcinoma). The method, boiled down:
as §1

A further experiment concerns SK-N-DZ (Neuroblastoma). Put shortly:
as §1

Experiment [17] has as its system SNU-1 (Gastric Carcinoma). The method, boiled down:
as §1

Experiment [18] concerns NCI-H835 (Other Solid Carcinomas). The method, boiled down: as §1

Consider `CN(CCO)CC[C@H](CSc1ccccc1)Nc1ccc(S(=O)(=O)NC(=O)c2ccc(N3CCC([C@@H](O)c4ccccc4-c4ccc(Cl)cc4)CC3)cc2)cc1S(=O)(=O)C(F)(F)F` [AZD4320] + C1CN(CCC1(C(=O)N[C@@H](CCO)C2=CC=C(C=C2)Cl)N)C3=NC=NC4=C3C=CN4 [Capivasertib] (first compound max 1 µM, 7x7, partner max 3 µM), for which the “combination Emax” value in [1] is 0.715; in experiment [2], 0.254; in experiment [3], 0.209; with DK-MG (Glioblastoma), 0.255; in experiment [4] it was 0.812; in experiment [5], 0.0692. In addition, the “combination Emax” value amounted to 0.767 in [6]; 0.383 in experiment [7]; 0.87 in experiment [8]; 0.86 in experiment [9]; 0.373 in experiment [10]; 0.558 in [11]. The “combination Emax” value in experiment [12] came to 0.264; in [13], 0.772; in [14] it was 0.984; in experiment [15], 0.175; in [16], 0.836; in the experiment on SK-N-DZ (Neuroblastoma), 0.705. Further, in experiment [17], the “combination Emax” value came to 0.412.
On to `CN(CCO)CC[C@H](CSc1ccccc1)Nc1ccc(S(=O)(=O)NC(=O)c2ccc(N3CCC([C@@H](O)c4ccccc4-c4ccc(Cl)cc4)CC3)cc2)cc1S(=O)(=O)C(F)(F)F` [AZD4320] + CC(=O)O[C@H]1C(=O)[C@@]2(C)[C@H]([C@H](OC(=O)c3ccccc3)[C@]3(O)C[C@H](OC(=O)[C@H](O)[C@@H](NC(=O)c4ccccc4)c4ccccc4)C(C)=C1C3(C)C)[C@]1(OC(C)=O)CO[C@@H]1C[C@@H]2O [Paclitaxel] (first compound max 1 µM, 7x7, partner max 3 µM), for which the entries for the “combination Emax” value in [12] and in experiment [18] were 0.776 and 1, respectively.
In the case of `CN(CCO)CC[C@H](CSc1ccccc1)Nc1ccc(S(=O)(=O)NC(=O)c2ccc(N3CCC([C@@H](O)c4ccccc4-c4ccc(Cl)cc4)CC3)cc2)cc1S(=O)(=O)C(F)(F)F` [AZD4320] + CCN(CCO)CCCOc1ccc2c(Nc3cc(CC(=O)Nc4cccc(F)c4)[nH]n3)ncnc2c1 [AZD2811] (first compound max 1 µM, 7x7, partner max 1 µM), the “combination Emax” value was 0.939 in [1]; 0.319 in [2]; 0.224 in experiment [3]; 0.255 with DK-MG (Glioblastoma); 0.993 in experiment [4]; 0.177 in [5]. Moreover, the “combination Emax” value amounted to 0.266 in [6]; 0.904 in experiment [7]; 0.929 in experiment [8]; 0.933 in experiment [9]; 0.584 in experiment [10]; 0.411 in experiment [11]. Besides, the “combination Emax” value was found to be 0.627 in [13]; 0.988 in experiment [14]; 0.3 in experiment [15]; 0.715 in [16]; 0.787 in the experiment with SK-N-DZ (Neuroblastoma); 0.541 in experiment [17].
Turning to `CN(CCO)CC[C@H](CSc1ccccc1)Nc1ccc(S(=O)(=O)NC(=O)c2ccc(N3CCC([C@@H](O)c4ccccc4-c4ccc(Cl)cc4)CC3)cc2)cc1S(=O)(=O)C(F)(F)F` [AZD4320] + C[C@@H]1COCCN1C2=NC(=NC(=C2)C3(CC3)[S@](=N)(=O)C)C4=C5C=CNC5=NC=C4 [AZD6738] (first compound max 1 µM, 7x7, partner max 10 µM), the “combination Emax” value in [1] is 0.978; in [2] it was 0.259; in [3] it was 0.494; with DK-MG (Glioblastoma) it was 0.359; in experiment [4] it was 0.999; in [5], 0.764. The “combination Emax” value turned out to be 0.876 in experiment [6]; 0.797 in experiment [7]; 1 in experiment [8]; 0.981 in [9]; 0.993 in [10]; 0.481 in [11]. Further, the “combination Emax” value in experiment [12] was 0.868; in experiment [13], 0.829; in experiment [14] it was 1; in experiment [15], 0.771; in experiment [16], 0.535; with SK-N-DZ (Neuroblastoma), 1. Also, the “combination Emax” value in experiment [17] came to 0.896.
Take `CN(CCO)CC[C@H](CSc1ccccc1)Nc1ccc(S(=O)(=O)NC(=O)c2ccc(N3CCC([C@@H](O)c4ccccc4-c4ccc(Cl)cc4)CC3)cc2)cc1S(=O)(=O)C(F)(F)F` [AZD4320] + C[C@@H](Nc1cc(F)cc(F)c1)c1cc(C(=O)N(C)C)cc2c(=O)cc(N3CCOCC3)oc12 [AZD8186] (first compound max 1 µM, 7x7, partner max 3 µM): the “combination Emax” value in experiment [1] turned out to be 0.807; in experiment [2], 0.428; in experiment [3], 0.461; in the experiment on DK-MG (Glioblastoma) it was 0.557; in experiment [4], 1; in [5], 0.237. The “combination Emax” value in experiment [6] worked out at 0.832; in [7], 0.497; in experiment [8], 0.871; in experiment [9], 0.962; in experiment [10], 0.767; in experiment [11], 0.421. The “combination Emax” value came out at 0.351 in experiment [12]; 0.764 in experiment [13]; 1 in experiment [14]; 0.41 in experiment [15]; 0.557 in experiment [16]; 0.868 in the experiment on SK-N-DZ (Neuroblastoma). Further, in experiment [17], the “combination Emax” value came to 0.877.
As to `CN(CCO)CC[C@H](CSc1ccccc1)Nc1ccc(S(=O)(=O)NC(=O)c2ccc(N3CCC([C@@H](O)c4ccccc4-c4ccc(Cl)cc4)CC3)cc2)cc1S(=O)(=O)C(F)(F)F` [AZD4320] + Cc1cc2ncnn2cc1Nc1ncc2c(n1)n(C1CCOCC1)c(=O)n2C [AZD7648] (first compound max 1 µM, 7x7, partner max 10 µM), the “combination Emax” value in [1] stood at 0.778; in [2], 0.154; in [3] it was 0.383; with DK-MG (Glioblastoma) it was 0.261; in [4], 0.829; in [5], 0.0567. The “combination Emax” value in experiment [6] is 0.653; in experiment [7], 0.473; in experiment [8], 0.827; in [9], 0.884; in [10], 0.464; in experiment [11], 0.35. Moreover, the “combination Emax” value in experiment [12] worked out at 0.318; in experiment [13] it was 0.674; in [14], 0.981; in experiment [15], 0.166; in experiment [16], 0.448; with SK-N-DZ (Neuroblastoma), 0.651. The “combination Emax” value in experiment [17] was determined as 0.463.
Take `CN(CCO)CC[C@H](CSc1ccccc1)Nc1ccc(S(=O)(=O)NC(=O)c2ccc(N3CCC([C@@H](O)c4ccccc4-c4ccc(Cl)cc4)CC3)cc2)cc1S(=O)(=O)C(F)(F)F` [AZD4320] + Nc1ccn([C@@H]2O[C@H](CO)[C@@H](O)C2(F)F)c(=O)n1 [Gemcitabine] (first compound max 1 µM, 7x7, partner max 0.3 µM): the “combination Emax” value in experiment [12] was 0.884; in experiment [18] it was 0.966.
`Cc1cc2ncnn2cc1Nc1ncc2c(n1)n(C1CCOCC1)c(=O)n2C` [AZD7648] + COc1cc([C@@H]2c3cc4c(cc3[C@@H](O[C@@H]3O[C@@H]5CO[C@@H](C)O[C@H]5[C@H](O)[C@H]3O)[C@H]3COC(=O)[C@H]23)OCO4)cc(OC)c1O [Etoposide] (first compound max 10 µM, 7x7, partner max 10 µM): the “combination Emax” value in experiment [12] amounted to 0.621; in [18], 0.692.
As to `Cc1cc2ncnn2cc1Nc1ncc2c(n1)n(C1CCOCC1)c(=O)n2C` [AZD7648] + O=C(c1cc(Cc2n[nH]c(=O)c3ccccc23)ccc1F)N1CCN(C(=O)C2CC2)CC1 [Olaparib] (first compound max 10 µM, 7x7, partner max 10 µM), the “combination Emax” value in experiment [1] is 0.356; in experiment [2] it was 0.117; in experiment [3], 0.218; with DK-MG (Glioblastoma) it was 0.262; in experiment [4] it was 0.251; in experiment [5], 0.0499. Further, the “combination Emax” value is 0.598 in [6]; 0.256 in experiment [7]; 0.543 in experiment [8]; 0.412 in experiment [9]; 0.246 in experiment [10]; 0.389 in experiment [11]. The “combination Emax” value in experiment [12] was determined as 0.38; in experiment [13] it was 0.411; in experiment [14] it was 0.173; in experiment [15], 0.218; in experiment [16], 0.188; in the experiment with SK-N-DZ (Neuroblastoma), 0.278. In addition, in experiment [17], the “combination Emax” value was 0.446.
Regarding `N#Cc1cnc(Nc2cc(NC[C@H]3CNCCO3)c(C(F)(F)F)cn2)cn1` [SRA737] + C=CCn1c(=O)c2cnc(Nc3ccc(N4CCN(C)CC4)cc3)nc2n1-c1cccc(C(C)(C)O)n1 [AZD1775] (first compound max 10 µM, partner max 1 µM), the “combination Emax” value amounted to 0.594 in [12] and 0.546 in [18].
As to `N#Cc1cnc(Nc2cc(NC[C@H]3CNCCO3)c(C(F)(F)F)cn2)cn1` [SRA737] + CCc1c2c(nc3ccc(O)cc13)-c1cc3c(c(=O)n1C2)COC(=O)[C@]3(O)CC [SN-38] (first compound max 10 µM, 7x7, partner max 0.3 µM), the “combination Emax” value in experiment [12] came out at 0.747; in experiment [18], 0.402.
For the compound `N#Cc1cnc(Nc2cc(NC[C@H]3CNCCO3)c(C(F)(F)F)cn2)cn1` [SRA737] + Nc1ccn([C@@H]2O[C@H](CO)[C@@H](O)C2(F)F)c(=O)n1 [Gemcitabine] (first compound max 10 µM, 7x7, partner max 0.3 µM), the “combination Emax” value turned out to be 0.708 in [12] and 0.321 in experiment [18].
For `N#Cc1cnc(Nc2cc(NC[C@H]3CNCCO3)c(C(F)(F)F)cn2)cn1` [SRA737] + O=c1[nH]cc(F)c(=O)[nH]1 [5-Fluorouracil] (first compound max 10 µM, 7x7, partner max 20 µM), the “combination Emax” value in [12] worked out at 0.689; in experiment [18], 0.391.
On to `C[C@@H](c1ccc2nccn2c1)n1nnc2ncc(-c3cnn(C)c3)nc21` [Savolitinib] + CN(CC[C@H](CSC1=CC=CC=C1)NC2=C(C=C(C=C2)S(=O)(=O)NC(=O)C3=CC=C(C=C3)N4CCC(CC4)[C@H](C5=CC=CC=C5C6=CC=C(C=C6)Cl)O)S(=O)(=O)C(F)(F)F)CCO [AZD4320] (first compound max 1 µM, 7x7, partner max 1 µM), for which the “combination Emax” value was 0.679 in [1]; 0.262 in experiment [2]; 0.187 in experiment [3]; 0.37 in the experiment on DK-MG (Glioblastoma); 0.898 in experiment [4]; 0.15 in [5]. For the same compound, the “combination Emax” value amounted to 0.219 in [6]; 0.357 in experiment [7]; 0.889 in experiment [8]; 0.593 in [9]; 0.369 in experiment [10]; 0.178 in experiment [11]. Also, the “combination Emax” value in experiment [13] is 0.657; in experiment [14], 0.993; in experiment [15], 0.326; in [16], 0.502; with SK-N-DZ (Neuroblastoma) it was 0.784; in [17], 0.417.
